System: orthotopic Calu-6 lung tumors
Experiment: orthotopic Calu-6 lung tumor with thoracic radiation, bioluminescent imaging
Assay type: in vivo
Conditions: single dose 30 mg/kg + 10 Gy thoracic radiation
Protocol: Orthotopic lung xenografts were generated following a published protocol ([54]) with minor modifications. Briefly, CD-1 nude mice (Charles River Laboratories) were anesthetized with 2% isoflurane and placed in the right lateral decubitus position. Luciferase-expressing Calu-6 cells (1 × 10^6) in 50 μL of 50% (vol/vol) Matrigel were injected into the left lateral thorax at the lateral dorsal axillary line, 1.5 cm above the lower rib line. The needle was advanced 5 mm into the thorax. After injection, the mouse was turned to the left lateral decubitus position for 5 minutes. […]
NSCLC subcutaneous xenografts were generated as previously described ( 53). […] Mouse weights and tumor volumes (1/2 x length x width x depth) were measured three times a week.
Targeted radiotherapy in subcutaneous and orthotopic NSCLC xenograft models When subcutaneous xenografts reached 100 mm3, mice were randomized into four groups (n = 7 - 11/group): (i) N-Methyl-2-pyrrolidone (NMP): 30% Encapsin : PEG400 (1:6:3 v/v/v) vehicle p.o. 30 minutes prior to mock radiation. […] The remaining mice were monitored for tumor growth until the sizes of tumo rs reached 400 mm 3 or up to 38 days after initiation of […]
Tumor growth in the remaining mice was monitored by bioluminescent imaging on days 0, 4, 8 and 15 post-treatment. […] Data were analyzed using LivingImage software (PerkinElmer). […]

SMILES: CN(C(=O)CN1CCOCC1)c1ccc2sc3c(-c4cccc5c(=O)cc(N6CC7CCC(C6)O7)oc45)cccc3c2c1 [NU5455]
- tolerability: well tolerated
- antitumor effect of radiation (time to 4-fold increase in bioluminescent signal) (CD-1 nude mice): enhanced the antitumor effect of the radiation
